Key:
Test in all cases: relative viability (nuclei count vs DMSO), 5 days (fraction); higher = more cells survive
Masitinib + Dasatinib = compound: Cc1ccc(NC(=O)c2ccc(CN3CCN(C)CC3)cc2)cc1Nc1nc(-c2cccnc2)cs1 [Masitinib] + Cc1nc(Nc2ncc(C(=O)Nc3c(C)cccc3Cl)s2)cc(N2CCN(CCO)CC2)n1 [Dasatinib] (partner 0.075 µM)
Method in brief: (§1)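 Nuclei were stained with Hoechst during a one-step fixation (final 0.05% Triton X-100, 1% formaldehyde, 1 ug/ml Hoechst) carried out 5 days after dosing, then counted on 4× images. The cells, lung cancer lines in 1536-well plates, had been dosed by pin tool the day after seeding with one drug alone or a fixed anchor-drug dose plus five library-drug doses (not always all listed) in √10 steps. Relative viability is the nuclei count in treated wells divided by that in vehicle wells, and each value is the median of duplicate plates.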

Masitinib + Luminespib = compound: Cc1ccc(NC(=O)c2ccc(CN3CCN(C)CC3)cc2)cc1Nc1nc(-c2cccnc2)cs1 [Masitinib] + CCNC(=O)c1noc(-c2cc(C(C)C)c(O)cc2O)c1-c1ccc(CN2CCOCC2)cc1 [Luminespib] (partner 0.01 µM)
Method in brief: as §1

[1] = compound: CC1=CC(=CC=C1)NC2=NC(=CS2)C3=CC=NC=C3 + CC1(C)CCC(c2ccc(Cl)cc2)=C(CN2CCN(c3ccc(C(=O)NS(=O)(=O)c4ccc(N[C@H](CCN5CCOCC5)CSc5ccccc5)c(S(=O)(=O)C(F)(F)F)c4)cc3)CC2)C1 [Navitoclax] (partner 0.5 µM)
Method in brief: as §1

[2] = compound: CC1=CC(=CC=C1)NC2=NC(=CS2)C3=CC=NC=C3 + CS(=O)(=O)CCNCc1ccc(-c2ccc3ncnc(Nc4ccc(OCc5cccc(F)c5)c(Cl)c4)c3c2)o1 [Lapatinib] (partner 2 µM)
Method in brief: as §1

Row | Cell Line | relative viability (Masitinib + Dasatinib; first compound 0.01 µM) | relative viability (Masitinib + Dasatinib; first compound 0.03162 µM) | relative viability (Masitinib + Dasatinib; first compound 0.1 µM) | relative viability (Masitinib + Dasatinib; first compound 0.3162 µM) | relative viability (Masitinib + Dasatinib; first compound 1 µM) | relative viability (Masitinib + Luminespib; first compound 0.01 µM) | relative viability (Masitinib + Luminespib; first compound 0.03162 µM) | relative viability (Masitinib + Luminespib; first compound 0.1 µM) | relative viability (Masitinib + Luminespib; first compound 0.3162 µM) | relative viability (Masitinib + Luminespib; first compound 1 µM) | relative viability ([1]; first compound 0.08 µM) | relative viability ([1]; first compound 0.253 µM) | relative viability ([1]; first compound 0.8 µM) | relative viability ([1]; first compound 2.53 µM) | relative viability ([1]; first compound 8 µM) | relative viability ([2]; first compound 0.08 µM) | relative viability ([2]; first compound 0.253 µM) | relative viability ([2]; first compound 0.8 µM) | relative viability ([2]; first compound 2.53 µM) | relative viability ([2]; first compound 8 µM)
1 | NCI-H1993 | 0.554 | 0.508 | 0.577 | 0.532 | 0.52 | 0.851 | 0.791 | 0.701 | 0.7 | 0.766 | 0.724 | 0.718 | 0.818 | 0.775 | 0.793 | 0.685 | 0.802 | 0.7 | 0.869 | 0.778
2 | NCI-H1623 | 0.488 | 0.446 | 0.551 | 0.453 | 0.43 | 0.493 | 0.451 | 0.814 | 0.427 | 0.506 |  |  |  |  |  |  |  |  |  | 
3 | HCC-44 |  |  |  |  |  | 1.04 | 1.17 | 1.08 | 1.03 | 1.09 | 0.759 | 0.728 | 0.709 | 0.749 | 0.813 | 0.757 | 0.755 | 0.831 | 0.777 | 0.812
4 | Calu-6 |  |  |  |  |  |  |  |  |  |  | 0.748 | 0.685 | 0.763 | 0.773 | 0.711 | 0.945 | 0.969 | 0.86 | 0.873 | 0.823
5 | EBC-1 |  |  |  |  |  |  |  |  |  |  | 0.376 | 0.381 | 0.516 | 0.391 | 0.227 | 0.202 | 0.238 | 0.204 | 0.206 | 0.167
6 | HCC-78 | 0.468 | 0.312 | 0.392 | 0.468 | 0.366 |  |  |  |  |  | 0.67 | 0.883 | 0.841 | 0.746 | 0.788 | 0.708 | 0.528 | 0.862 | 0.623 | 0.673
7 | IA-LM |  |  |  |  |  |  |  |  |  |  | 0.74 |  | 0.769 | 0.439 | 0.401 | 0.65 | 0.503 | 0.561 | 0.508 | 0.572
8 | NCI-H441 | 0.846 | 0.623 | 0.723 | 0.659 | 0.511 | 0.288 | 0.402 | 0.349 | 0.407 | 0.318 | 0.327 | 0.42 | 0.673 | 0.64 | 0.777 |  |  |  |  | 
9 | NCI-H1299 |  |  |  |  |  |  |  |  |  |  | 0.981 | 0.99 | 0.986 | 1.07 | 1.01 | 0.969 | 0.938 | 0.933 | 0.946 | 0.84
10 | NCI-H661 | 0.883 | 1.03 | 1.04 | 0.795 | 0.658 | 0.831 | 0.916 | 0.951 | 0.897 | 0.903 |  |  |  |  |  | 0.481 | 0.506 | 0.573 | 0.468 | 0.507
11 | NCI-H1703 |  |  |  |  |  |  |  |  |  |  | 0.92 | 1.13 | 1.38 | 1.26 | 1.07 | 0.894 | 1.21 | 1.19 | 1.36 | 1.07
12 | NCI-H650 | 0.516 | 0.429 | 0.482 | 0.313 | 0.415 | 0.7 | 0.908 | 0.798 | 0.853 | 0.766 |  |  |  |  |  | 0.708 | 0.815 | 1.32 |  | 0.975
13 | ChaGo-K-1 | 0.577 | 0.575 | 0.54 | 0.546 | 0.629 | 0.681 | 0.48 | 0.635 | 0.524 | 0.569 | 0.9 | 0.806 | 1.06 | 0.411 | 0.849 |  |  |  |  | 
14 | NCI-H522 | 0.818 |  | 0.823 | 0.887 | 0.879 | 1.18 | 1.16 | 1.05 | 1.13 | 0.94 |  |  |  |  |  |  |  |  |  | 
15 | NCI-H1563 | 0.399 | 0.481 | 0.49 | 0.481 | 0.415 | 0.509 | 0.537 | 0.524 | 0.532 | 0.505 |  |  |  |  |  | 0.912 | 0.64 | 0.912 | 0.761 | 0.634
16 | NCI-H2342 | 0.326 | 0.334 | 0.3 | 0.301 | 0.34 | 0.775 | 0.79 | 0.707 | 0.727 | 0.791 |  |  |  |  |  |  |  |  |  | 
17 | SW 900 | 0.613 | 0.473 | 0.706 | 0.499 | 0.477 | 0.165 | 0.156 | 0.163 | 0.158 | 0.185 |  |  |  |  |  |  |  |  |  | 
18 | HCC-366 |  | 0.654 |  | 0.619 | 0.609 |  |  |  |  |  | 0.934 | 1.04 | 1.04 | 0.884 | 0.949 | 0.848 | 1.07 | 1.01 | 1.05 | 0.951
19 | A549 |  |  |  |  |  |  |  |  |  |  | 1.05 | 1.23 | 1.19 | 1.16 | 0.866 | 0.863 | 0.893 | 0.898 | 0.891 | 0.809
20 | NCI-H358 | 0.155 | 0.158 | 0.166 | 0.161 | 0.133 | 0.21 | 0.299 | 0.37 | 0.342 | 0.186 |  |  |  |  |  | 0.433 | 0.476 | 0.554 | 0.607 | 0.604
21 | ABC-1 | 0.58 | 0.588 | 0.629 | 0.428 | 0.521 | 0.397 | 0.692 | 0.743 | 0.484 | 0.429 |  |  |  |  |  | 1.24 | 1.14 | 1.03 | 1.02 | 1.01
22 | LCLC-103H | 0.41 | 0.467 | 0.462 | 0.437 | 0.445 | 0.727 | 0.932 | 1.04 | 0.748 | 1.03 |  |  |  |  |  |  |  |  |  | 
